Experimental data published in article PMC4907212, “Mucosal and blood-brain barrier transport kinetics of the plant N-alkylamide spilanthol using in vitro and in vivo models” (BMC Complementary and Alternative Medicine, 2016).
Where two headings read alike, the source gives them in different places.

Experiments:
[1] = design: method as in PMID 20227845, PMID 19808085, PMID 23583736; settings: porcine buccal mucosa; cited from earlier work
[2] = Brain-to-blood transport after intracerebroventricular injection; assay type: in vivo, ICR-CD-1 mice; settings: female, ICR-CD-1, mouse, icv or intrathecal, 4 μg per mouse; mice, ICV injection, ln(2)/kout; read-out: efflux brain half-life t1/2,brain
Experimental: (§1) To evaluate the efflux of spilanthol out of the brain, an in vivo method previously described was used. Briefly, after anesthetizing the ICR-CD-1 mice using a 40 % (w/V) urethane solution (3 g/kg), the skin of the skull was removed. Thereafter, a hole was made into the lateral ventricle using a 22 G needle marked with tape at 2 mm at the following coordinates: 1 mm lateral and 0.34 mm posterior to the bregma. 1 μl of the 4 mg/ml spilanthol dose solution as used for the blood-to-brain influx experiment was injected intracerebroventriculary (ICV) using a syringe pump (KDS100, KR analytical, Cheshire, UK) at a speed of 360 μl/h for 10 s. […] Prior to decapitation, blood was collected from the abdominal aorta. Serum was obtained by centrifuging the blood at 10 000 g during 15 min at 21 °C and brains were collected. The efflux brain half-life (t1/2,brain) (min) was calculated from the linear regression of the natural logarithm of the spilanthol concentration in brain (ng/g) versus time as follows: t1/2,brain = ln(2)/kout, where kout (min^−1) is defined as the efflux rate constant calculated as the negative value of the slope of the linear regression, applying first order kinetics.

blood-brain barrier = assay: as above; assay type: in vivo, ICR-CD-1 mice; settings: mice, ICV injection of 1 μl of 4 mg/ml dose solution
Experimental: as §1

[3] = Caco-2 cell permeability assay (Transwell, ab and ba direction); assay type: in vitro ADME, human; settings: human; for Papp A→B at 120 min, 10 μg/ml / Papp B→A at 120 min, 10 μg/ml: mean ± SD, n = 2; for Papp A→B at 120 min, 10 μg/ml: read-out: apparent permeability coefficient (Papp), apical-to-basolateral; for Papp B→A at 120 min, 10 μg/ml: read-out: apparent permeability coefficient (Papp), basolateral-to-apical; for efflux ratio at 120 min, 10 μg/ml: read-out: efflux ratio (Papp,ba/Papp,ab)
Experimental: (§2) Caco-2 cells, originating from a human colorectal carcinoma were maintained in Dulbecco's modified Eagle's medium (DMEM) at 95 % humidity and 37 °C in an atmosphere of 5 % CO2, supplemented with 10 % (V/V) fetal bovine serum, 2 mM L-glutamine and 1 % non-essential amino acids (100x), 100 U/ml penicillin and 100 μg/ml streptomycin (all from Invitrogen/GIBCO, Ghent, Belgium). The Caco-2 cell intestinal model was used as a model for the gut mucosa to investigate the permeation of spilanthol. Caco-2 cells were seeded at a density of 2.6 · 10^5 cells/cm^2 cells for each Transwell (Corning Costar, New York, USA) membrane insert filter (0.4 μm pore size, 12 mm filter diameter) and cultivated in the described supplemented DMEM, also containing 100 units/ml penicillin and 100 μg/ml streptomycin. The medium was changed every second day. The cells were allowed to grow and differentiate for 21-29 days until monolayers were formed. Intact membranes/integrity of the monolayers were checked via the measurement of transepithelial electrical resistance (TEER) of the monolayers using the Millicell-ERS system (Millipore Corp., Bedford, MA, USA) before and after transport experiments. The experiment was performed in duplicate for each dose solution. Transport experiments were carried out in the apical-to-basolateral (ab) direction and in the basolateral-to-apical (ba) direction in Hanks' Balanced Salt solution, according to Hubatsch et al.. Two dose solutions of purified spilanthol at 10 μg/ml were tested, differing in solvent: 0.5 % ethanol (further indicated as DS1) and 0.5 % of a mixture of vitamin E-TPGS (33.3 %), ethanol (11.1 %), PEG 400 (33.3 %) and PG (22.2 %) (further indicated as DS2) dissolved in HBSS. Final volumes of 0.4 ml apically and 1.2 ml basolaterally were used for 12-mm filter supports during the transport experiment. Samples were taken at 15, 30, 60, 90 and 120 min from the acceptor (= receiver) compartment (basolateral to apical transport: 100 μl; apical to basolateral transport: 300 μl) and were immediately replaced by fresh HBSS. […] Quantification of spilanthol was conducted using the UPLC-MS^2 method as described below. The apparent permeability coefficient (Papp in cm/s) of spilanthol was calculated from a non-sink equation. From Fick's first law: J = - […] is the diffusion coefficient, J is the flux or transfer rate along the donor-to-receptor side, x is the distance from the donor compartment and C(x) is the concentration in the barrier at the coordinate x in the barrier), the following differential equation is derived: dMr(t)/dt = Papp × […])], in which Mr is the amount of substance in the receiver chamber, Papp is the apparent permeability coefficient (a product of distribution coefficient with diffusion coefficient divided by the barrier thickness), A is the cross-sectional area of the barrier, Cd is the donor concentration and Cr is the receiver concentration. This differential equation is the basis to calculate Papp values of compounds requiring sink, as well as non-sink conditions with different initial conditions to solve this equation. […] Non-linear curve fitting by minimisation of the sum of squared residuals (SSR) was used to obtain the Papp. The efflux ratio is calculated as Papp,ba/Papp,ab, while the uptake ratio is calculated as Papp,ab/Papp,ba.

Caco-2 cell monolayer = assay: as above; assay type: in vitro ADME, human
Experimental: as §2

[4] = Serum elimination kinetics in the mice MTR model after intravenous injection; assay type: in vivo, ICR-CD-1 mice
[5] = design: method as in PMID 20227845, PMID 19808085, PMID 23583736; settings: human skin, topical application; cited from earlier work

For `C/C=C/C=C\CC/C=C/C(=O)NCC(C)C` [spilanthol, deca-2E,6Z,8E-trienoic acid isobutylamide], the “permeability coefficient Kp,aq” value [1] is given as 3.14 ×10⁻⁶ cm/s, the half-life [2] is given as 6.4 min and the “efflux transfer constant kout” value (blood-brain barrier) is given as 0.11 min⁻¹. For the same compound, the Papp A→B at 120 min, 10 μg/ml ([3]; Caco-2, DS1 (10 μg/ml purified spilanthol, 0.5 % ethanol in HBSS)) was 84.2 ×10⁻⁶ cm/s, the Papp B→A at 120 min, 10 μg/ml ([3]; Caco-2, DS1) was 102 ×10⁻⁶ cm/s and the efflux ratio at 120 min, 10 μg/ml ([3]; Caco-2, DS1) was 1.21. The Papp A→B at 120 min, 10 μg/ml ([3]; Caco-2, DS2 (10 μg/ml, 0.5 % vitamin E-TPGS/ethanol/PEG 400/PG mixture in HBSS)) was 56.1 ×10⁻⁶ cm/s, the Papp B→A at 120 min, 10 μg/ml ([3]; Caco-2, DS2) was 52 ×10⁻⁶ cm/s and the efflux ratio at 120 min, 10 μg/ml ([3]; Caco-2, DS2) was 0.93. The recovery at 120 min, 10 μg/ml ([3]; Caco-2, donor plus acceptor at last time point (120 min), read-out: mass balance, total recovery) was 105 to 121%, the “uptake ratio (Papp,ab/Papp,ba)” value (Caco-2 cell monolayer; DS1) was 0.82 and the “amount of spilanthol permeated, apical-to-basolateral” value (Caco-2 cell monolayer; DS1, after 120 min) was 3.20 µg. The “amount of spilanthol permeated, basolateral-to-apical” value (Caco-2 cell monolayer; DS1, after 120 min) was 3.86 µg, the “percentage of applied spilanthol permeated, apical-to-basolateral” value (Caco-2 cell monolayer; DS1, after 120 min) was 79.8% and the “percentage of applied spilanthol permeated, basolateral-to-apical” value (Caco-2 cell monolayer; DS1, after 120 min) was 32.1%. The “uptake ratio (Papp,ab/Papp,ba)” value (Caco-2 cell monolayer; DS2) was 1.08, the “amount of spilanthol permeated, apical-to-basolateral” value (Caco-2 cell monolayer; DS2, after 120 min) was 2.47 µg and the “amount of spilanthol permeated, basolateral-to-apical” value (Caco-2 cell monolayer; DS2, after 120 min) was 2.49 µg. For the same compound, the “percentage of applied spilanthol permeated, apical-to-basolateral” value (Caco-2 cell monolayer; DS2, after 120 min) was 64.3%, the “percentage of applied spilanthol permeated, basolateral-to-apical” value (Caco-2 cell monolayer; DS2, after 120 min) was 21.6% and the “percentage of applied DS permeated, apical-to-basolateral (absorptive direction)” value (Caco-2 cell monolayer; after 120 min, DS1 and DS2) was 64–80%. For the same compound, the “difference in Papp values between apical-to-basolateral and basolateral-to-apical direction” value (Caco-2 cell monolayer; both dose solutions) was “less than 2 fold”, the half-life ([4]; female, ICR-CD-1, iv, 80 μg per mouse, mouse serum, i.v.) was 3.16 min and the k el ([4]; female, ICR-CD-1, iv, 80 μg per mouse, mouse serum, i.v., one compartmental model, read-out: elimination rate constant (converted)) was 0.00367 s⁻¹. For the same compound, the “concentration of spilanthol at time zero in serum” value ([4]; mice, i.v. 20 μl of 4 mg/ml, one compartmental model) was 3050 ng/mL and the “permeability coefficient Kp,aq” value [5] was 0.919 ×10⁻⁶ cm/s.
